Measured values: PubChem BioAssay AID1259411 (Chemical Carcinogenesis Research Information System (CCRIS), 2018)
Calls of active or inactive are those of the source. How the calls were made is not given here.

System: rodent carcinogenicity bioassays, tumor incidence
Assay: CCRIS carcinogenicity studies
Method in brief: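 Archive of carcinogenicity, mutagenicity, tumor promotion and tumor inhibition results drawn from journals, NCI reports and other sources, expert-reviewed; covers 1985-2011 and is no longer updated.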

Q: `CCCCCc1cc(O)c2c(c1)OC(C)(C)[C@@H]1CCC(C)=C[C@@H]21` was tested. Which carcinogen call (Species: MOUSE, Strain/Sex: B6C3F1/FEMALE, Route: GAVAGE, Dose: 0, 125, 250, 500 MG/KG BW IN CORN OIL FOR 105-106 WK (STUDY DURATION: 105-106 WK), Dose: 0, 125, 250, 500 MG/KG BW IN CORN OIL FOR 105-106 WK (STUDY DURATION: 105-106 WK), Tumor Site: Type of Lesion: THYROID GLAND: FOLLICULAR CELL ADENOMA) did it give?
A: The carcinogen call was “equivocal”.

Q: What about the carcinogen call (Species: MOUSE, Strain/Sex: B6C3F1/MALE, Route: GAVAGE, Dose: 0, 125, 250, 500 MG/KG BW IN CORN OIL FOR 104-105 WK (STUDY DURATION: 104-105 WK), Dose: 0, 125, 250, 500 MG/KG BW IN CORN OIL FOR 104-105 WK (STUDY DURATION: 104-105 WK), Tumor Site: Type of Lesion: THYROID GLAND: FOLLICULAR CELL ADENOMA) of the same compound?
A: The carcinogen call was “equivocal”.

Q: What about the carcinogen call (Species: RAT, Strain/Sex: F344/FEMALE, Route: GAVAGE, Dose: 0, 12.5, 25, 50 MG/KG BW IN CORN OIL FOR 104-105 WK (STUDY DURATION: 104-105 WK), Dose: 0, 12.5, 25, 50 MG/KG BW IN CORN OIL FOR 104-105 WK (STUDY DURATION: 104-105 WK)) of the same compound?
A: Its carcinogen call is “inactive; negative”.

Q: And the carcinogen call (Species: RAT, Strain/Sex: F344/MALE, Route: GAVAGE, Dose: 0, 12.5, 25, 50 MG/KG BW IN CORN OIL FOR 104-105 WK (STUDY DURATION: 104-105 WK), Dose: 0, 12.5, 25, 50 MG/KG BW IN CORN OIL FOR 104-105 WK (STUDY DURATION: 104-105 WK))?
A: Its carcinogen call is “inactive; negative”.

Q: `Clc1cc(Cl)c(-c2cc(Cl)c(Cl)cc2Cl)cc1Cl` was tested. Which carcinogen call (Species: RAT, Strain/Sex: SPRAGUE-DAWLEY/FEMALE, Route: ORAL, Dose: 0, 10, 100, 300, 1000, 3000 NG/KG/D (STUDY DURATION: 2 YRS), Dose: 0, 10, 100, 300, 1000, 3000 NG/KG/D (STUDY DURATION: 2 YRS)) did it give?
A: Its carcinogen call is “inactive; negative”.

Q: And the carcinogen call (Species: Rat, Strain/Sex: Harlan Sprague-Dawley/Female, Route: Gavage, Dose: 0, 3000 ug/kg in corn oil:acetone (99:1) 5 d/wk for 30 wk then vehicle for remainder of 2 yr study, Tumor Site: Type of Lesion: Liver: Cholangioma (0/53, 2/50))?
A: The carcinogen call was “equivocal”.

Q: And the carcinogen call (Species: Rat, Strain/Sex: Harlan Sprague-Dawley/Female, Route: Gavage, Dose: 0, 10, 100, 300, 1000, 3000 ug/kg in corn oil:acetone (99:1) 5 d/wk for 2 yr, Dose: 0, 10, 100, 300, 1000, 3000 ug/kg in corn oil:acetone (99:1) 5 d/wk for 2 yr; Tumor Site: Type of Lesion: Liver: Cholangioma 0/53, 0/54, 0/53, 0/53, 2/53, 0/51))?
A: The carcinogen call was “equivocal”.

Q: `CCCCNN` was tested. Which carcinogen call (Species: MOUSE, Strain/Sex: SWISS/FEMALE, Route: ORAL, Dose: 0, 0.0125% SOLUTION IN DRINKING WATER DAILY FOR LIFE FOR AN AVERAGE DAILY INTAKE OF 0, 1.3 MG (STUDY DURATION: 130 WK), Dose: 0, 0.0125% SOLUTION IN DRINKING WATER DAILY FOR LIFE FOR AN AVERAGE DAILY INTAKE OF 0, 1.3 MG (STUDY DURATION: 130 WK), Tumor Site: Type of Lesion: LUNG: ADENOMA, LUNG: ADENOMA OR ADENOCARCINOMA) did it give?
A: Its carcinogen call is “active; positive”.

Q: And the carcinogen call (Species: MOUSE, Strain/Sex: SWISS/MALE, Route: ORAL, Dose: 0, 0.0125% SOLUTION IN DRINKING WATER DAILY FOR LIFE FOR AN AVERAGE DAILY INTAKE OF 0, 2.1 MG (STUDY DURATION: 130 WK), Dose: 0, 0.0125% SOLUTION IN DRINKING WATER DAILY FOR LIFE FOR AN AVERAGE DAILY INTAKE OF 0, 2.1 MG (STUDY DURATION: 130 WK), Tumor Site: Type of Lesion: LUNG: ADENOMA, LUNG: ADENOMA OR ADENOCARCINOMA)?
A: Its carcinogen call is “active; positive”.

Q: Which carcinogen call (Species: MOUSE, Route: ORAL, Tumor Site: Type of Lesion: LIVER, LUNG) does the source give for `NC(=O)N(N)c1ccccc1` here?
A: Its carcinogen call is “active; positive”.

Q: Which results are given for `O=[N+]([O-])c1cc([As](=O)(O)O)ccc1O`?
A: carcinogen call (Species: MOUSE, Strain/Sex: B6C3F1/FEMALE, Route: ORAL, Dose: 0, 100, 200 PPM IN FEED FOR 103 WK (STUDY DURATION: 105 WK), Dose: 0, 100, 200 PPM IN FEED FOR 103 WK (STUDY DURATION: 105 WK)): inactive; negative; carcinogen call (Species: MOUSE, Strain/Sex: B6C3F1/MALE, Route: ORAL, Dose: 0, 100, 200 PPM IN FEED FOR 103 WK (STUDY DURATION: 105 WK), Dose: 0, 100, 200 PPM IN FEED FOR 103 WK (STUDY DURATION: 105 WK)): inactive; negative; carcinogen call (Species: RAT, Strain/Sex: F344/FEMALE, Route: ORAL, Dose: 0, 50, 100 PPM IN FEED FOR 103 WK (STUDY DURATION: 104 WK), Dose: 0, 50, 100 PPM IN FEED FOR 103 WK (STUDY DURATION: 104 WK)): inactive; negative; carcinogen call (Species: RAT, Strain/Sex: F344/MALE, Route: ORAL, Dose: 0, 50, 100 PPM IN FEED FOR 103 WK (STUDY DURATION: 104 WK), Dose: 0, 50, 100 PPM IN FEED FOR 103 WK (STUDY DURATION: 104 WK), Tumor Site: Type of Lesion: EXOCRINE PANCREAS: ADENOMA): equivocal

Q: Which carcinogen call (Species: RAT, Strain/Sex: ACI/FEMALE, Route: ORAL, Dose: 0, 2.5% (MOL. WT. 21500) IN DIET FOR 480 D (STUDY DURATION: 480 D)) does the source give for `O=CC(O)C(O)C(O)C(O)COC1OC(COC2OC(CO)C(O)C(O)C2O)C(O)C(O)C1O` (stereo not given) here?
A: Its carcinogen call is “inactive; negative”.

Q: And the carcinogen call (Species: RAT, Strain/Sex: ACI/MALE, Route: ORAL, Dose: 0, 2.5% (MOL. WT. 21500) IN DIET FOR 480 D (STUDY DURATION: 480 D))?
A: Its carcinogen call is “inactive; negative”.

Q: For `COC(=O)N(C(=O)N1CO[C@@]2(C(=O)OC)Cc3cc(Cl)ccc3C2=N1)c1ccc(OC(F)(F)F)cc1`, which carcinogen call (Species: Mouse, Strain/Sex: Crl:CD-1(ICR)BR/Female (70/Group), Route: Oral, Dose: 0, 20, 100, 125/150/200 ppm for 18 mo, study duration 18 mo, Dose: 0, 20, 100, 125/150/200 ppm for 18 mo, study duration 18 mo) is on record?
A: The carcinogen call was “inactive; negative”.

Q: What about the carcinogen call (Species: Mouse, Strain/Sex: Crl:CD-1(ICR)BR/Male (70/Group), Route: Oral, Dose: 0, 20, 100, 125/150/200 ppm for 18 mo, study duration 18 mo, Dose: 0, 20, 100, 125/150/200 ppm for 18 mo, study duration 18 mo) of the same compound?
A: The carcinogen call was “inactive; negative”.

Q: How did the carcinogen call (Species: HAMSTER, Strain/Sex: SYRIAN/MALE, Route: GAVAGE, Dose: 0, 300 MG/KG IN CORN OIL 1/5 WK FOR A TOTAL OF 5 DOSES (STUDY DURATION: 40 WK)) turn out when `O=C(C1CCCCC1)N1CC(=O)N2CCc3ccccc3C2C1` (stereo not given) was run?
A: The carcinogen call was “inactive; negative”.

Q: `FC(Cl)C(F)(F)F` (stereo not given) was tested. Which carcinogen call (Species: RAT, Strain/Sex: CRL:CD/FEMALE, Route: INHALATION, Dose: 0, 2000, 10,000, 50,000 PPM 6 HR/D 5 D/WK FOR 2 YR (STUDY DURATION: 2 YR), Dose: 0, 2000, 10,000, 50,000 PPM 6 HR/D 5 D/WK FOR 2 YR (STUDY DURATION: 2 YR)) did it give?
A: The carcinogen call was “inactive; negative”.

Q: What about the carcinogen call (Species: RAT, Strain/Sex: CRL:CD/MALE, Route: INHALATION, Dose: 0, 2000, 10,000, 50,000 PPM 6 HR/D 5 D/WK FOR 2 YR (STUDY DURATION: 2 YR), Dose: 0, 2000, 10,000, 50,000 PPM 6 HR/D 5 D/WK FOR 2 YR (STUDY DURATION: 2 YR)) of the same compound?
A: The carcinogen call was “inactive; negative”.

Q: What does the source list for `C1=CC2OC2C=C1` (stereo not given)?
A: carcinogen call (Species: MOUSE, Strain/Sex: SWISS/FEMALE, Route: INTRAPERITONEAL, Dose: 0, 7.4, 18.6 UMOL ADMINISTERED AS 3 UNEQUAL DOSES (1/7, 2/7, AND 4/7 OF THE TOTAL DOSE) OVER A 2-WK PERIOD (STUDY DURATI, Dose: 0, 7.4, 18.6 UMOL ADMINISTERED AS 3 UNEQUAL DOSES (1/7, 2/7, AND 4/7 OF THE TOTAL DOSE) OVER A 2-WK PERIOD (STUDY DURATI): inactive; negative; carcinogen call (Species: MOUSE, Strain/Sex: SWISS/MALE, Route: INTRAPERITONEAL, Dose: 0, 7.4, 18.6 UMOL ADMINISTERED AS 3 UNEQUAL DOSES (1/7, 2/7, AND 4/7 OF THE TOTAL DOSE) OVER A 2-WK PERIOD (STUDY DURATI, Dose: 0, 7.4, 18.6 UMOL ADMINISTERED AS 3 UNEQUAL DOSES (1/7, 2/7, AND 4/7 OF THE TOTAL DOSE) OVER A 2-WK PERIOD (STUDY DURATI): inactive; negative

Q: With `C[C@H]1C[C@]2(C)[C@@H](O)CC[C@H]2[C@@H]2CCc3cc(O)ccc3[C@H]21` as the compound, how does the carcinogen call (Species: HAMSTER, Strain/Sex: SYRIAN/MALE, Route: SUBCUTANEOUS IMPLANT, Dose: 0, 20 MG IN PELLETS IMPLANTED EVERY 2.5 MO FOR 9 MO (STUDY DURATION: 9 MO)) read?
A: The carcinogen call was “inactive; negative”.

Q: `Cl` was tested. Which carcinogen call (Species: RAT, Strain/Sex: F344/MALE, Route: ORAL, Dose: 0, 0.25, 1, 4% IN DIET FOR 2 YR (STUDY DURATION: 2 YR), Dose: 0, 0.25, 1, 4% IN DIET FOR 2 YR (STUDY DURATION: 2 YR)) did it give?
A: Its carcinogen call is “inactive; negative”.
